“Also recorded” adds a separate entry of the source.
Tests used:
erythrocytes (RBC) = assay: Hemolysis; type: cell-based, mouse; conditions: complex of the anionic polymer with PAHM, data not shown
[1] = Particle size of complexes by dynamic light scattering; type: physicochemical; conditions: complex of the anionic polymer with PAHM
Description: Heparin (sodium salt) was mixed with PAHM in 20 mM HEPES buffer (pH 7.4) and incubated for 30 minutes at room temperature. The charge ratio of heparin and PAHM was adjusted based on the assumption that one repeating unit of PAHM (Mw 325.88) bears 1 mole of positive charge (approximately the same number of primary amino groups) and that one repeating unit of heparin (Mw 1471) carries 8 moles of negative charges (approximately the number of carboxylate and sulfate groups combined). The final PAHM concentration was kept constant as 0.1 mg/mL. To determine the average particle size of the nano-complexes, the heparin/PAHM mixtures were diluted 20 times to a final volume of 2 mL in HEPES buffer. The average hydrodynamic diameter (or particle size) in HEPES buffer (20 mM) at 25° C. were determined using a ZetaPlus Particle Analyzer (Brookhaven Instruments Corporation, Holtsville, N.Y.; 27 mW laser; 658 nm incident beam, 90° scattering angle). Nano-complexes with heparin/PAHM charge ratios ranging from 1 to 32 were prepared as described above and measured by DLS.

T98G = assay: MTT cytotoxicity in 2D monolayer cell culture; type: cell-based; conditions: Homo sapiens, 24 h treatment
Description: (§1) Cytotoxicity in 2D Monolayer Cell Culture A mouse breast cancer cell line EMT-6 (ATCC, Manassas, Va.), two human breast cancer cell lines MDA-MB-231(ATCC) and MCF-7(ATCC), and one human glioma cancer cell line T98G(ATCC) were used in standard MTT assays (T. Mosmann, J Immunol Methods 65(1-2) (1983) 55-63) to test the cytotoxicity of PAHM polymers with different molecular weight and concentration after 24 and 48 h of treatment. D ox-HCl was also tested for comparison. All of the four cancer cell lines were incubated in corresponding cell culture media, EMT-6 media (DMEM high glucose, 10% FBS, 100 U/mL penicillin/streptomycin), T98G and MDA-MB-231 media (DMEM low glucose, 10% FBS, 100 U/mL penicillin/streptomycin), MCF-7 media (DMEM low glucose, 10% FBS, insulin, 100 U/mL penicillin/streptomycin), at 37° C., and a humidified atmosphere containing 5% CO2.
(§2) The MTT assay of PAHM polymers and Dox-HCl on EMT-6 cells exemplified the general experimental procedures. EMT-6 cells were seeded into 96-well plates at 5000 cells/well and cultured for 20 h in EMT-6 media at 5% CO2 and 37° C. Afterwards polymers of various molecular weight and concentrations were added to the cells and cultured for 24 h or 48 h. MTT in PBS (5 mg/mL, 20 μL) was then added to each well, reaching a final concentration of 0.5 mg/mL. After 4 h, unreacted MTT was removed by aspiration. The formazan crystals were dissolved in 150 μL of DMSO, and the absorbance was measured at 570 nm using a Bio-Tek Synergy HT plate reader. Cell viability was calculated by [absorbance of cells exposed to polymers]/[absorbance of cells cultured without polymers] in percentage. Cell images were captured before MTT was added using an Olympus IX70 […] microscope under polarized light.

EMT-6 = assay: MTT cytotoxicity in 2D monolayer cell culture; type: cell-based; conditions: Mus musculus, EMT6
Description: as §1, §2

AsPC-1 cells = assay: PAHM+Dox cytotoxicity assay (MTT); type: cell-based, human; conditions: AsPC-1, PAHM and Dox used in combination
Description: AsPC-1 or EMT6 cells were plated at 5000 cells/well (in 100 μL phenol red free medium) in 96-well plates. After culturing overnight (˜20 h), the medium was removed, and 100 μL medium containing various concentrations of PAHM and/or Dox was added to the cells. AsPC-1 cells were exposed to 1-100 μg/mL PAHM, 1-100 μg/mL Dox, or combinations of PAHM and Dox at a 1:1 ratio. EMT6 cells were exposed to 1-100 μg/mL PAHM, 0.02-2 μg/mL Dox, or combinations of PAHM and Dox at a 50:1 ratio. After 24 h exposure, the PAHM and Dox solutions were removed and 100 μL phenol red free medium was added to the cells. Cell viability was measured using an MTT assay. To each well, 10 μL MTT solution (12 mM in PBS) was added. After 4 h, 85 μL was removed from each well and formazan was solubilized in 100 μL dimethyl sulfoxide (DMSO). Absorbance was measured at 540 nm using a plate reader (BioTek™ Cytation™ 3 Cell Imaging Multi-Mode Reader controlled by Gen5™ All-In-One Microplate Reader Software). Data was analyzed in Microsoft Excel and Combination Indices and Dose Reduction Indices were calculated using CompuSyn (ComboSyn, Inc.)

EMT-6 tumors = assay: In vivo EMT-6 tumor model, anti-tumor effect; parameters: species or system Balb/C mice; conditions: 8 mice per group, charge ratios 1, 4, 16 (low, med, high heparin dose) or equivalent heparin alone

hyaluronic acid [HA]
hemolytic activity of PAHM in complexed form (erythrocytes (RBC)): reduced, sometimes abolished
particles formed with PAHM (size) [1]: nano to micro scale

COc1cccc2c1C(=O)c1c(O)c3c(c(O)c1C2=O)C[C@@](O)(C(=O)CO)C[C@@H]3O[C@H]1C[C@H](N)[C@H](O)[C@H](C)O1 [Dox, doxorubicin]
IC50 (T98G): > 40 µg/mL
IC50 (EMT-6; EMT-6, 24 h treatment): 10 to 15 µg/mL
IC50 (EMT-6; EMT-6, 48 h): 5 µg/mL
Dose Reduction Index (DRI) (AsPC-1 cells): much higher; also recorded: All but one DRI values are above 1

heparin
tumor growth (tumor volume and weight) (EMT-6 tumors): modest but insignificant effect on tumor growth
